Reference: publication PMC5645319, “An Integrin-Targeted, Highly Diffusive Construct for Photodynamic Therapy” (Scientific Reports, 2017)

Key:
[1] = Reactive oxygen species generation, singlet oxygen sensor green (SOSG) fluorogenic assay
Experimental: (§1) HPF (H36004) and SOSG (S36002) were purchased from Life Technologies and were used as directed by the manufacturer’s protocol. Working solutions were prepared at 10 µM in DPBS or 5 µM TRIS buffer (pH 7.5) for HPF and SOSG, respectively, using 10 µM concentrations of the appropriate photosensitizer. All sample irradiation was carried out using 660 nm-centered LED-generated light (M660L3, Thorlabs) at an irradiance of 100 mW/cm^2. Irradiation of 80 µL sample volumes was carried out in clear plastic 96-well plates, with the emission of the ROS probes measured with a plate reader (SpectraMax m5, Molecular Devices). Experiments were performed in triplicate and experimental values (N = 3) were averaged and background-subtraction was performed.

[2] = system: monolayer OVCAR5 cells
Experimental: (§4) The MTT assay was used to evaluate cellular viability of PDT-treated monolayer cultures. […] The MTT reagent (Thiazolyl Blue Tetrazolium Bromide, Sigma) was administered to cells in warmed complete cell culture media at a concentration of 1 mg/mL. Growth medium was gently aspirated from wells so as not to remove weakly adhered cells and was replaced with MTT media solution (160 µL). Cells were then returned cells to the 37 °C incubator and kept under 5% CO2 for 60 minutes. After incubating cells, the MTT treatment solution was carefully and completely aspirated from wells, with DMSO then added (180 µL) to extract cellular Formazan. After incubating samples for 15 minutes at room temperature while periodically rocking plates to completely and uniformly dissolve Formazan crystals, Formazan-containing DMSO was aliquoted (50 µL volumes from each well in triplicate) into a 96-well plate alongside wells containing an equal volume of DMSO to be used for background subtraction. The absorbance of Formazan at 540 nm was then measured using a SpectraMax M5 (Molecular Devices) plate reader.
(§5) After averaging measured absorbance values, background-subtraction was carried out and the standard deviation of the experimental values was calculated. For each individual sample group or treatment condition, the background-subtracted average absorbance value was normalized to that of the untreated (“NT”) control group to obtain the normalized cellular viabilities. […] All measurements were performed in triplicate to ensure high quality data collection.
(§6) All steps involving the manipulation of photosensitizers were carried out under subdued lighting to the extent that it was possible to avoid artifacts from unintentional photodynamic effects. Wells within each dish were spaced far apart from each other to ensure minimal light administration cross-talk. All manipulations of media or other culture liquids were done manually, specifically avoiding the use of vacuum aspiration techniques to avoid the unintended removal of weakly adhered cells before, during or after therapy.
(§7) Sequential blocking of integrins with cRGD peptide was achieved by administering a 10-fold excess of cRGD peptide (50 µM) in warmed DPBS to cells and incubating for a duration of 3 hours at 37 °C in a 5% CO2 incubator. Blocking solution was removed and replaced with photosensitizer-containing treatment media without performing a washing step and cells were immediately returned to the incubator for the appropriate time.
(§8) Concentrated stock solutions of photosensitizers were diluted in and administered to cells in warmed complete cell culture media. […] Integrin-dependent PDT efficacy was evaluated using 10 µM photosensitizer doses. The comparison of PEG-dependent enhancement in PDT was evaluated using 5 µM photosensitizer doses. […]

[3] = Absorption spectroscopy to assess photosensitizer aggregation in water; assay type: physicochemical; details: for Aggregation in water by absorption spectrum: construct at 87.8 µM, compared with EtNBS in acidified methanol
Description: Spectra were acquired using a home-built spectrometer that made use of a white light source for absorption measurements and a 655 nm LED for EtNBS excitation. Transmitted or absorbed light was collected and fiber-delivered to a QE65000 spectrometer (Ocean Optics) for spectral acquisition.

[4] = system: OVCAR5 cell line engineered to ectopically overexpress the α5 integrin; experiment: Integrin-dependent uptake in monolayer culture, confocal fluorescence microscopy; assay type: cell-based
Experimental: (§2) All imaging experiments were carried out on an Olympus FV1000 confocal microscope with a stage-top incubator (Prior) to maintain humidity, 37 °C temperature, and 5% CO2 during imaging sessions. For each sample, imaging was restricted to 15 minutes from the time cells were removed from the incubator to avoid any artifacts related to cell death. Image acquisition parameters were chosen which captured signal from both samples/cell lines without any saturation of signal and were kept uniform between samples to allow for direct one-to-one comparison of signal. These parameters were also used to image cells treated with known concentrations of EtNBS, to allow for relative comparison of uptake against known references. For every imaging experiment and conditions, a minimum of three areas of interests were collected and analyzed.
(§3) Stably transfected OVCAR5 cells overexpressing the alpha5 integrin as well as wild-type OVCAR5 cells were plated as described above in glass-bottom 35 mm culture dishes (P35G-0.170-14-C, MatTek) at a density of 200,000 cells per dish 24 hours prior to the start of experiments. Cells were administered the photosensitizer at a concentration of 10 µM in warmed complete cell culture medium and incubated for 3 hours in a 37 °C incubator under 5% CO2. […]

[5] = system: OVCAR5 cells; experiment: Uptake in monolayer cell cultures, confocal fluorescence microscopy; assay type: cell-based
Experimental: as §2, §3

[6] = system: monolayer OVCAR5 cells; experiment: Photodynamic therapy and dark toxicity in monolayer cultures, MTT viability assay
Experimental: as §4, §5, §6, §7, §8

[7] = Reactive oxygen species generation, hydroxyphenyl fluorescein (HPF) fluorogenic assay; details: 10 µM photosensitizer, 660 nm
Experimental: as §1

[8] = system: monolayer OVCAR5 cells; details: 5 µM concentration, no light; 'has been observed', no reference given; cited from earlier work
Experimental: To assess the ability of the construct to carry out PDT, monolayer OVCAR5 cells were incubated with the EtNBS construct and illuminated with 660 nm light (Fig. 7). […] This is true even though the construct is more efficient in the generation of reactive radical species. This difference in light dose between the free molecule and its targeted construct, however, is not entirely surprising; similar higher light doses have been found necessary in immunoconjugates based on the benzoporphyrin der ...

Compound	ROS generation measured by SOSG versus free EtNBS ([1]; 10 µM photosensitizer, 660 nm, 100 mW/cm^2, all light doses tested (5–40 J/cm^2), triplicate)	Yield of singlet oxygen (SOSG) relative to free EtNBS ([1]; equimolar 10 µM photosensitizer, 5 µM SOSG in TRIS buffer pH 7.5, 660 nm LED, 100 mW/cm^2, highest light dose (40 J/cm^2), mean of triplicate) [%]	Toxicity without light, small scale experiments [2]	Aggregation in water by absorption spectrum [3]	Uptake in alpha5 integrin overexpressing OVCAR5 versus OVCAR5 ([4]; 10 µM, 3 hours incubation, 37 °C, fluorescence excited at 635 nm, 670 nm emission)	Uptake of PEGylated versus unPEGylated construct in overexpressing cells ([4]; alpha5 integrin overexpressing OVCAR5 cells)	Photosensitizer concentration within the cells relative to administered free EtNBS ([5]; EtNBS references at 250 nM and 500 nM)	Reduction in viability after PDT ([6]; 5 µM photosensitizer, 3 hour incubation, 660 nm at 100 mW/cm^2, 100 J/cm^2 light dose, MTT 24 hours post-treatment, triplicate) [%]	PDT effect after pre-incubation with free cRGD ([6]; pre-treated with cRGD 50 µM (tenfold molar excess) 3 hours, then construct 5 µM, 100 J/cm^2 at 660 nm, MTT)	Enhancement of HPF fluorescence versus free EtNBS ([7]; 10 µM HPF in DPBS, 100 mW/cm^2, dose of 50 J/cm^2, triplicate)	Photodynamic activity measured by HPF versus free EtNBS ([7]; 100 mW/cm^2, all light doses (5–100 J/cm^2), triplicate)	Toxicity of cRGD administered solely to cells ([6]; cRGD only, not exposed to light, MTT)	Drop in viability due solely to dark toxicity [8] [%]	Aggregation in water by absorption spectrum (Supplementary Fig. 3) ([3]; 5 µM concentration)	Photosensitizer uptake of free EtNBS relative to the construct ([5]; relative comparison)
DOTA-Lys(ETNBS)-Lys(PEG5K)-β-Ala-Cys(DBCO-PEG4-cRGD) (head to tail) [EtNBS construct, cRGD integrin-targeted, 5 kDa PEGylated EtNBS photodynamic therapy construct with DOTA]	greater than that of free EtNBS	~100	equally harmless	does not show aggregation	significantly greater	take up more	many times lower	60	protected the cells against PDT	two-fold enhancement	considerably greater photodynamic activity	–	–	–	–
N=C(N)NCCC[C@@H]1NC(=O)[C@H](CCCCN)NC(=O)[C@@H](Cc2ccccc2)NC(=O)[C@H](CC(=O)O)NC(=O)CNC1=O [cRGD, cRGDfK, reference compound]	–	–	–	–	–	–	–	–	–	–	–	did not result in any measured toxicity	–	–	–
CCNc1cc2sc3cc(=[N+](CC)CC)ccc-3nc2c2ccccc12.[Cl-] [EtNBS]	–	–	–	formation of aggregates distorts the spectrum	–	–	–	–	–	–	–	–	70	displays a blue shift	up to two orders of magnitude greater uptake
